# Source: patent publication US20260151363A1, “MELANOGENESIS INHIBITION COMPOSITIONS AND METHODS OF USE THEREOF” (MDI BIOLOGICAL LABORATORY, priority 2023, published 2026)
# Read-outs that look alike come from different tables or passages of the source.
# Legend:
# [1] = tested on: melanin production; experiment: Melanin production and toxicity, ML233 analogs in parallel with ML233 (serial dilution); details: for toxicity: 25 μM
# Method: The ML233 analogs were tested in parallel with serial dilution in DMSO: at 25 μM, 12.5 μM, […], 3.12 5 μM, 1.5625 μM and […].
# [2] = tested on: tyrosinase; experiment: Tyrosinase activity in treated zebrafish embryos (absorbance of L-DOPA); assay type: in vivo
# Method: To determine the effect of ML233 on tyrosinase activity, zebrafish embryos were treated with ML233 at the following concentrations: 0.5 micromolar, 1.25 micromolar, 2.5 micromolar, five micromolar, 10 micromolar, and 15 micromolar ML233 (FIG. 3A). DMSO was used as a carrier and the tyrosinase inhibitor PTU was used as a positive control.
# [3] = tested on: B16F10 murine melanoma cells; experiment: Melanin production in B16F10 cells (OD 410, IBMX-stimulated); assay type: cell-based
# Method: To determine if ML233 could inhibit pigmentation of […] cells at low ML233 concentrations (without effects on cell proliferation), melanin production was analyzed in B16F10 cells after 24 hours of treatment with 0.625 μM, 1.25 μM, 2.5 μM, or 5 μM of ML233. Observation of cell pellets after centrifugation confirmed that ML233 function to inhibit melanin production was conserved in mammals (data not shown). The effect of ML233 and 3-isobutyl-1-methylxanthine (IBMX) on melanin production was analyzed in B16F10 murine melanoma cells. IBMX is a non-selective phosphodiesterase inhibitor, which induced melanin production in B16F10 murine melanoma cells. Melanin production was measured in cells treated with IBMX alone (100 micromolar), and IBMX in conjunction with: 0.625 micromolar ML233, 1.25 micromolar ML233, 2.5 micromolar ML233, and five micromolar ML233, as well as in negative control cells treated with DMSO vehicle alone. Melanin production in treated cells was measured using optical density (FIG. 6A) at a wavelength of 410 nm (OD value 410). Ratios with the total quantity of protein (OD value 562) were calculated (FIG. 6B). […] P-values are indicated in the bar charts.
# [4] = tested on: B16F10 (murine melanoma); experiment: Tyrosinase protein expression (Western blot) and pigmentation in B16F10 cells; assay type: cell-based; details: 5 μM
# Method: To study these two possibilities, an antibody raised against the human tyrosinase protein was used. The capacity of the antibody to recognize TYR in two different mammalian cell lines (FIG. 11A): B16F10 (murine melanoma) and A375 (human melanoma) was tested. Using the validated antibody, the level of tyrosinase protein expression by Western blot in control DMSO and 5 μM ML233 treated cells (FIG. 11B) was analyzed.
# [5] = tested on: tyrosinase; experiment: Tyrosinase expression by Western blot and densitometry (FIG. 9); details: 15 μM
# Method: An analysis of tyrosinase expression after ML233 treatment was performed. […] Quantitative analysis was also performed using densitometry of tyrosinase expression after ML233 treatment at 15 μM of the Western blot data (FIG. 9B). DMSO was a negative control, while phenylthiourea (PTU), which is a potent inhibitor of human tyrosinase), was used as a positive control. CRISPR was used as a specificity control of the antibody used in the analysis, where CRISPR was directed against the tyrosinase gene.
# [6] = tested on: zebrafish embryos; experiment: Zebrafish embryo viability / toxicity; assay type: in vivo; details: 2.5, five
# Text: Studies were undertaken to evaluate the effect of ML233 on embryo viability. […] The number of viable and dead embryos at 1 day post fertilization (dpf), 2 dpf, 3 dpf and 4 dpf and at various doses of ML233 was compared to embryo viability in negative controls, which included embryos treated with the carrier DMSO or untreated embryos. (FIG. 4A).
# [7] = tested on: tyrosinase; experiment: In vitro tyrosinase activity (FIG. 3B); assay type: biochemical; details: compared to DMSO
# Text: The effect of ML233 on tyrosinase activity was also explored in in vitro experiments.
# [8] = tested on: mitfa and tyr genes; experiment: In situ hybridization of mitfa and tyr in zebrafish embryos; assay type: in vivo; details: for tyr mRNA detection (in situ hybridization): embryos at 48 hpf, treated between 24 and 48 hpf
# Method: (§1) Example 10: Tyrosinase gene expression was not abolished by ML233 treatmentTo better understand the molecular action of ML233 on skin pigmentation and melanogenesis, the expression of genes involved in melanogenesis, including tyrosinase (tyr), dopachrome tautomerase (dct), and microphthalmia-associated transcription factor (mitfa), the latter which is known to control melanocyte formation and TYR expression, was analyzed.
# [9] = tested on: mushroom TYR; experiment: Mushroom TYR conversion of L-DOPA to melanin in vitro (FIG. 3C); assay type: biochemical; details: 20 μM; compared to DMSO
# Method: To determine whether ML233, a small inhibitor of melanogenesis, acts directly on tyrosinase (TYR) activity in vitro, the activity of mushroom TYR was assessed via measurement of its capacity to convert L-DOPA to melanin in vitro using Kojic Acid at 100 μM as a positive control.
# [10] = tested on: tyr, dct, and mitfa mRNA expression; experiment: RT-qPCR of tyr, dct and mitfa mRNA in zebrafish embryos; assay type: in vivo
# Method: as §1
# [11] = tested on: ME2319B human melanoma line; experiment: PDXO viability/proliferation, ME2319B; assay type: cell-based; details: ME2319B 3D organoids
# Method: (§2) Because ML233 affected B16F10 murine melanoma-cell proliferation, the proliferative potential of human metastatic melanoma was determined. Patient-derived xenograft organoids (PDXOs), which were 3D in vitro models generated from patient tumors, were used. The effect of ML233 treatment (between 0.001 μM and 10 μM) in two different human melanoma cell lines collected from metastasis, ME1154B and ME2319B (Crown Bioscience). These two melanoma lines differed in their sensitivity to both ML233 and the control molecule, staurosporine (STS), in 3D organoids (FIGS. 12A-12B).
# [12] = tested on: zebrafish embryos; experiment: Bulk RNAseq and GSEA in WT and aplnr KO zebrafish embryos; assay type: in vivo; details: 0.5 μM
# Text: Because ML233 is an agonist of the apelin receptors, ML233 driven differential expression in an apelin dependent and independent manner was investigated. […] A clear separation in gene expression between the WT and KO backgrounds was observed (FIG. 10C).
# [13] = tested on: zebrafish embryos; experiment: Pigmentation of zebrafish embryos (micrographs); assay type: in vivo
# Method: Zebrafish embryos were allowed to develop in the presence of ML233 and the effects of ML233 on pigmentation was analyzed. ML233 was dissolved in carrier Dimethylsulfoxide (DMSO). Embryos were exposed to ML233 beginning at four hours post-fertilization and ending at 48 hours post-fertilization. Dimethylsulfoxide (DMSO) was used as a negative control. ML233 dosages tested were 2.5 micromolar, five micromolar, and 10 micromolar (FIG. 1A).
# The effect of ML233 on pigmentation was analyzed in zebrafish embryos at 38 hours post-fertilization when larvae were highly pigmented. Embryos were treated with ML233 at the following concentrations: 5 micromolar, 10 micromolar, and 15 micromolar. The carrier, DMSO, was used as a negative control. Pigmentation was analyzed six hours (FIG. 2A) and 24 hours after ML233 addition (FIG. 2B).
# [14] = tested on: B16F10 murine melanoma cell line; experiment: B16F10 melanoma cell proliferation / viability; assay type: cell-based; details: Mus musculus, B16-F10
# Method: ML233 reduced pigmentation in a mammalian melanoma cell line. In vivo, in vitro, and computational studies described here supported the hypothesis that ML233 was a direct inhibitor of TYR protein expression and function. The effects of ML233 and cisplatin on the proliferation of B16F-10 murine melanoma cells in vitro was analyzed. To determine the effects of conservation in higher vertebrate species, ML233 activity in the B16F10 murine melanoma cell line was tested. B16F10-cell proliferation was analyzed after ML233 treatment to determine IC50. A 50% reduction in cell viability at concentrations of ML233 between 5 and 10 μM was observed (FIG. 5A). Cells were treated with various concentration of ML233 or cisplatin and the cell viability of control percent versus the concentration of ML233 or cisplatin (in μM) was analyzed (FIGS. 5A and 5B).
# [15] = tested on: zebrafish embryos; experiment: Percent melanin quantity in zebrafish embryos; assay type: in vivo
# Method: The effect of ML233 on percent melanin quantity was assayed in zebrafish embryos beginning at 4 hours post-fertilization and ending at 48 hours. Developing embryos were treated with ML233 in DMSO carrier at varying dosages, or DMSO as a negative control or with phenylthiourea (PTU) as a positive control.
# [16] = tested on: ME1154B human melanoma line; experiment: cells; assay type: cell-based; details: ME1154B 3D organoids, read-out: IC50 viability/proliferation
# Method: as §2
# [17] = serial dilution 25 μM to 0.78125
compound,measurement,setting,value
"CC1=C/C(=N/OS(=O)(=O)c2ccccc2)C(C(C)C)=CC1=O [(i), [(Z)-(5-methyl-4-oxo-2-propan-2-ylcyclohexa-2,5-dien-1-ylidene)amino]benzenesulfonate]",toxicity,[1],higher toxicity
same,inhibition of melanin production,[1]; [17],Inhibition of melanin production was also observed
"CC1=CC(=O)C(C(C)C)=C/C1=N\OS(=O)(=O)c1ccccc1 [(iii), [(E)-(2-methyl-4-oxo-5-propan-2-ylcyclohexa-2,5-dien-1-ylidene)amino]benzenesulfonate]",toxicity,[1],higher toxicity
same,inhibition of melanin production,[1]; [17],Inhibition of melanin production was also observed
"CC1=CC(=O)C(C2CCCCC2)=C/C1=N\OS(=O)(=O)c1ccccc1 [ML233, (E)-2-cyclohexyl-5-methyl-4-(phenylsulfonyloxyimino)cyclohexa-2,5-dienone]",percent of tyrosinase activity compared with PTU,[2]; 10 micromolar and 15 micromolar ML233 groups,comparable to PTU
same,tyrosinase activity,[2]; concentration as low as 0.5 micromolar,significantly reduced
same,melanogenesis (melanin OD 410; ratio to protein OD 562),"[3]; IBMX 100 micromolar plus 0.625, 1.25, 2.5 or five micromolar ML233",reduced melanogenesis in mammalian melanoma cells at all dosages
same,B16F10 cells survival,[3]; between 0.625 and 5 μM,without affecting B16F10 cells survival
same,melanoma-cell pigmentation (absorbance quantification of melanin),[3]; concentrations as low as 0.625 μM,significantly reduced
same,pigmentation of cells,[4],strong reduction in the pigmentation
same,TYR protein expression normalized with Beta-actin,[4]; vs DMSO,no significant reduction of TYR protein expression
same,tyrosinase expression (Western blot),[5],tyrosinase expression was inhibited
same,percent viability at day four post fertilization,[6]; 10 and 20 micromolar,No deleterious effects on zebrafish viability
same,toxicity (viable and dead embryos at 1 to 4 dpf),[6]; 10 and 20 micromolar from 4 hours post-fertilization,low toxicity at effective concentrations
same,reduction of tyrosinase activity,[7]; 20 micromolar,greater than 40%
same,reduction of tyrosinase activity,[7]; 30 micromolar,50%
same,mitfa and tyr gene expression in melanocytes (in situ hybridization),[8]; 2 dpf after 1 day of 15 μM,still expressed in melanocytes
same,tyr mRNA detection (in situ hybridization),[8],highly detectable
same,reduction of melanogenesis (L-DOPA to melanin),[9],~40%
same,inhibition of melanin production,[1]; 3.125 μM and lower concentrations,very efficient at inhibiting melanin production
same,tyr expression by RT-qPCR,[10]; 5 μM and greater,Significantly decreased
same,maximum reduction of tyr expression,"[10]; 20 μM, compared to DMSO-treated embryos",~40%
same,mitfa expression by RT-qPCR,[10]; any concentration,not significantly dysregulated
same,"tyr, dct, and mitfa mRNA expression by RT-qPCR",[10]; embryos at 2 dpf after 1 day of treatment,mild reduction of gene expression
same,viability,[11]; between 0.001 μM and 10 μM,did not affect ME2319B viability at any concentration tested
same,impact on biological processes (GSEA),[12],did not significantly impact biological processes
same,pigmentation of embryos,"[13]; 2.5, five and 10 micromolar, exposure 4 to 48 hours post-fertilization, vs DMSO",visible decrease in pigmentation
same,pigmentation of embryos,"[13]; treated at 38 hours post-fertilization, 5, 10, 15 micromolar, six hours and 24 hours after addition",reduced pigmentation at all dosages
same,IC50,"[14]; B16F10, read-out: concentration giving 50% reduction in cell viability",5 to 10 µM
same,IC50,"[14]; B16F10 proliferation, read-out: in vitro IC50",10 µM
same,melanin production (percent melanin quantity),"[15]; 0.5 to 15 micromolar, 4 to 48 hours post-fertilization",significantly inhibited melanin production at all levels tested
same,melanin quantity compared with PTU,[15]; 5 micromolar and above,comparable to treatment with PTU
same,IC50,[16],1.65 µM
"NC(=S)Nc1ccccc1 [PTU, phenylthiourea, reference compound]",tyr mRNA detection (in situ hybridization),[8],highly detectable
"CN[C@@H]1C[C@H]2O[C@@](C)([C@@H]1OC)n1c3ccccc3c3c4c(c5c6ccccc6n2c5c31)C(=O)NC4 [STS, staurosporine, reference compound]",IC50,[11]; Homo sapiens,0.0025 µM
"[(E)-(5-methyl-4-oxo-2-propan-2-ylcyclohexa-2,5-dien-1-ylidene)amino]4-methylbenzenesulfonate [(ii)]",inhibition of melanin production,[1]; [17],Inhibition of melanin production was also observed
